EC50 data for 31 compounds are collected here from patent US10836775B2, “6,6-fused heteroaryl piperidine ether allosteric modulators of the M4 muscarinic acetylcholine receptor” (Merck Sharp & Dohme Corp., priority 2016, dated 2020).

In general, EC50 refers to the concentration at which the effect is half-maximal.

This assay concerns the target T1, human M4 muscarinic acetylcholine receptor (Homo sapiens, UniProt P08173).
T1 construct: expressed in transfected cells; host or cells: CHO-K1
T1 sequence (P08173 1-479): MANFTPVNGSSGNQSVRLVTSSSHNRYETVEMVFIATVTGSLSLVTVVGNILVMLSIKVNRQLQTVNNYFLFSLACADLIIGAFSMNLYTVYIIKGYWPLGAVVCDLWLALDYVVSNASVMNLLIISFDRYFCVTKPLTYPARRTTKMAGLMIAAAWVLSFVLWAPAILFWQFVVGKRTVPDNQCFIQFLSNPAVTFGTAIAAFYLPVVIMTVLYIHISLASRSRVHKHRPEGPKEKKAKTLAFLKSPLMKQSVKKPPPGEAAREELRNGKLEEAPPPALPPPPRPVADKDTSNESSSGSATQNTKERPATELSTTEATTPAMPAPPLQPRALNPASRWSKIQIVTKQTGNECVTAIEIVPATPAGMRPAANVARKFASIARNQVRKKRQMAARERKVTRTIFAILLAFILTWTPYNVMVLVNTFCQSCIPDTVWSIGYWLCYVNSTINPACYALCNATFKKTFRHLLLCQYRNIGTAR
In words: human FLIPR-based M4 PAM assay (CHO-K1 cells, human M4 receptor and Gαqi5, calcium dye fluorescence, acetylcholine at 20% of maximum). In kind it is cell-based. Particulars: inflection point (IP) of 4 parameter logistic dose response curve; CHO-K1 cells with human M4 receptor and Gαqi5; FLIPR Tetra. Here is the method:
In a typical experiment the M4 muscarinic acetylcholine receptor modulating activity of the compounds of the present invention was determined in accordance with the following experimental method. […] On the day of assay, growth medium is removed, the cells are washed 2 times with wash buffer, and cells are incubated in dye loading buffer at 37° C., 5% CO2 for ˜1 hour. […] Next, 10 uL of acetylcholine is added (final concentration calculated so as to achieve 20% of the maximum acetycholine response), and the fluorescence reading is continued for 3.5 min. In some cases, a third addition of acetylcholine (final concentration calculated to achieve 70% of the maximal acetylcholine response) is performed. The resulting dose response curves are fit to a 4 parameter logistic equation and the final result is determined as the inflection point (IP) of the curve
CHO-K1 cells stably transfected with human M4 receptor and chimeric G-protein Gαqi5 are thawed from liquid N2 storage, resuspended in growth medium, plated in black, clear bottom 384 well plates, and incubated 16-20 hours at 37° C., 5% CO2.
On the day of assay, growth medium is removed, the cells are washed 2 times with wash buffer, and cells are incubated in dye loading buffer at 37° C., 5% CO2 for ˜1 h. […] Next, 10 uL of acetylcholine is added (final concentration calculated so as to achieve 20% of the maximum acetycholine response), and the fluorescence reading is continued for 3.5 min. In some cases, a third addition of acetylcholine (final concentration calculated to achieve 70% of the maximal acetylcholine response) is performed.
Take `COc1ccc(OC2CCN(c3nc4c(cc3C)C(=O)N(C)CC4)CC2)cn1` [Example 4, 2-(4-((6-methoxypyridin-3-yl)oxy)piperidin-1-yl)-3,6-dimethyl-7,8-dihydro-1,6-naphthyridin-5(6H)-one]: the EC50 came to 431 nM. The same measure for `COc1ccc(OC2CCN(c3nc4cnn(C)c(=O)c4cc3C)CC2)cn1` [Example 13, 2-(4-((6-methoxypyridin-3-yl)oxy)piperidin-1-yl)-3,6-dimethylpyrido[2,3-d]pyridazin-5(6H)-one]: 61 nM; for `Cc1cc2c(=O)n(C)c(C)nc2nc1N1CCC(Oc2cnc3c(c2)COC3)CC1` [Example 45, 7-(4-((5,7-dihydrofuro[3,4-b]pyridin-3-yl)oxy)piperidin-1-yl)-2,3,6-trimethyl-pyrido[2,3-d]pyrimidin-4(3H)-one]: 361 nM; for `Cc1cc2c(=O)[nH]cnc2nc1N1CCC(Oc2cccnc2)CC1` [Example 16, 6-methyl-7-(4-(pyridin-3-yloxy)piperidin-1-yl)pyrido[2,3-d]pyrimidin-4(3H)-one]: 213 nM.

Regarding `COCc1nc2nc(N3CCC(Oc4cccc(C#N)c4)CC3)c(C)cc2c(=O)[nH]1` [Example 39, 3-((1-(2-(methoxymethyl)-6-methyl-4-oxo-3,4-dihydropyrido[2,3-d]pyrimidin-7-yl)piperidin-4-yl)oxy)benzonitrile], the 50% effective concentration (EC50) was found to be 32 nM. Consider `COc1ccc(OC2CCN(c3nc4nc(C)[nH]c(=O)c4cc3C)CC2)cn1` [Example 19, 7-(4-((6-methoxypyridin-3-yl)oxy)piperidin-1-yl)-2,6-dimethylpyrido[2,3-d]pyrimidin-4(3H)-one], for which the EC50 came out at 74 nM. As to `COc1ccc(OC2CCN(c3nc4[nH]c(=O)oc(=O)c4cc3C)CC2)cn1` [Example 47, 7-(4-((6-Methoxypyridin-3-yl)oxy)piperidin-1-yl)-6-methyl-2H-pyrido[2,3-d][1,3]oxazine-2,4(1H)-dione], the concentration for a half-maximal effect (EC50) came out at 78 nM. The same measure for `COc1ccc(OC2CCN(c3nc4c(cc3C)C(=O)NCC4)CC2)cn1` [Example 1, 2-(4-((6-Methoxypyridin-3-yl)oxy)piperidin-1-yl)-3-methyl-7,8-dihydro-1,6-naphthyridin-5(6H)-one]: 393 nM; for `Cc1cc2c(=O)[nH]cnc2nc1N1CCC(OCC2CC2)CC1` [Example 17, 7-(4-(cyclopropyl-methoxy)piperidin-1-yl)-6-methylpyrido[2,3-d]pyrimidin-4(3H)-one]: 121 nM; for `Cc1cc2c(=O)[nH]c(=O)[nH]c2nc1N1CCC(OCC2(C)CC2)CC1` [Example 25, 6-methyl-7-(4-((1-methylcyclopropyl)methoxy)piperidin-1-yl)pyrido[2,3-d]pyrimidine-2,4(1H,3H)-dione]: 19 nM. The same measure for `COc1ccc(OC2CCN(c3nc4c(cnc(=O)n4C)cc3C)CC2)cn1` [Example 49, 7-(4-((6-Methoxypyridin-3-yl)oxy)piperidin-1-yl)-1,6-dimethylpyrido[2,3-d]pyrimidin-2(1H)-one]: 210 nM; for `COc1ccc(OC2CCN(c3nc4ccoc(=O)c4cc3C)CC2)cn1` [Example 54, 2-(4-((6-Methoxypyridin-3-yl)oxy)piperidin-1-yl)-3-methyl-5H-pyrano[4,3-b]pyridin-5-one]: 85 nM; for `COc1ccc(OC2CCN(c3nc4cn[nH]c(=O)c4cc3C)CC2)cn1` [Example 11, 2-(4-((6-methoxypyridin-3-yl)oxy)piperidin-1-yl)-3-methylpyrido[2,3-d]pyridazin-5(6H)-one]: 22 nM.

Consider `Cc1cc2c(=O)[nH]c(=O)[nH]c2nc1N1CCC(OCC2CC2)CC1` [Example 33, 7-(4-(cyclopropyl-methoxy)piperidin-1-yl)-6-methylpyrido[2,3-d]pyrimidine-2,4(1H,3H)-dione], for which the 50% effective concentration (EC50) stood at 52 nM. The same measure for `Cc1cc2c(=O)[nH]ncc2nc1N1CCC(OCC2CCCC2)CC1` [Example 18, 2-(4-(cyclopentyl-methoxy)piperidin-1-yl)-3-methylpyrido[2,3-d]pyridazin-5(6H)-one]: 254 nM.

For `COc1ccc(OC2CCN(c3nc4c(=O)[nH][nH]c(=O)c4cc3C)CC2)cn1` [Example 53, 2-(4-((6-Methoxypyridin-3-yl)oxy)piperidin-1-yl)-3-methyl-6,7-dihydropyrido[2,3-d]pyridazine-5,8-dione], the concentration for a half-maximal effect (EC50) came to 260 nM.

Take `COc1ccc(OC2CCN(c3nc4[nH]c(=N)[nH]c(=O)c4cc3C)CC2)cn1` [Example 50, 2-Imino-7-(4-((6-methoxypyridin-3-yl)oxy)piperidin-1-yl)-6-methyl-2,3-dihydropyrido[2,3-d]pyrimidin-4(1H)-one]: the EC50 is 469 nM.

Turning to `Cc1nc2nc(N3CCC(Oc4cnn(C)c4)CC3)c(C)cc2c(=O)[nH]1` [Example 27, 2,6-dimethyl-7-(4-((1-methyl-1H-pyrazol-4-yl)oxy)piperidin-1-yl)pyrido[2,3-d]pyrimidin-4(3H)-one], the concentration giving a half-maximal response (EC50) is 494 nM.

With `COc1ccc(OC2CCN(c3nc4cnn(CO)c(=O)c4cc3C)CC2)cn1` [Example 51, 6-(Hydroxymethyl)-2-(4-((6-methoxypyridin-3-yl)oxy)piperidin-1-yl)-3-methylpyrido[2,3-d]pyridazin-5(6H)-one], the concentration for a half-maximal effect (EC50) came out at 46 nM.

On to `Cc1cc2c(=O)[nH]cnc2nc1N1CCC(Oc2ccccc2)CC1` [Example 14, 6-methyl-7-(4-phenoxypiperidin-1-yl)pyrido[2,3-d]pyrimidin-4(3H)-one], for which the 50% effective concentration (EC50) was 80 nM.

Consider `Cc1cc2c(=O)[nH]cnc2nc1N1CCC(Oc2cccc(C#N)c2)CC1` [Example 15, 3-((1-(6-methyl-4-oxo-3,4-dihydropyrido[2,3-d]pyrimidin-7-yl)piperidin-4-yl)oxy)benzonitrile], for which the EC50 was 23 nM. For `COc1ccc(OC2CCN(c3nc4cc[nH]c(=O)c4cc3C)CC2)cn1` [Example 12, 2-(4-((6-methoxypyridin-3-yl)oxy)piperidin-1-yl)-3-methyl-1,6-naphthyridin-5(6H)-one], the EC50 was 114 nM. The same measure for `COc1ccc(OC2CCN(c3nc4[nH]c(=O)n(C)c(=O)c4cc3C)CC2)cn1` [Example 6, 7-(4-((6-Methoxypyridin-3-yl)oxy)piperidin-1-yl)-3,6-dimethylpyrido[2,3-d]pyrimidine-2,4(1H,3H)-dione]: 59 nM; for `COc1ccc(OC2CCN(c3nc4c(cc3C)C(=O)N(Cc3ccncc3)CC4)CC2)cn1` [Example 3, 2-(4-((6-methoxypyridin-3-yl)oxy)piperidin-1-yl)-3-methyl-6-(pyridin-4-ylmethyl)-7,8-dihydro-1,6-naphthyridin-5(6H)-one]: 453 nM.

In the case of `Cc1cc2c(=O)[nH]ncc2nc1N1CCC(Oc2cnn(C)c2)CC1` [Example 23, 3-methyl-2-(4-((1-methyl-1H-pyrazol-4-yl)oxy)piperidin-1-yl)pyrido[2,3-d]pyridazin-5(6H)-one], the EC50 worked out at 158 nM. The same measure for `COc1ccc(OC2CCN(c3nc4oc(=O)[nH]c(=O)c4cc3C)CC2)cn1` [Example 52, 7-(4-((6-Methoxypyridin-3-yl)oxy)piperidin-1-yl)-6-methyl-2H-pyrido[3,2-e][1,3]oxazine-2,4(3H)-dione]: 15 nM; for `CCc1cc2c(=O)[nH]ncc2nc1N1CCC(Oc2ccc(OC)nc2)CC1` [Example 37, 3-ethyl-2-(4-((6-methoxypyridin-3-yl)oxy)piperidin-1-yl)pyrido[2,3-d]pyridazin-5(6H)-one]: 71 nM. Regarding `Cc1cc2c(=O)[nH]ncc2nc1N1CCC(Oc2cccc(C#N)c2)CC1` [Example 21, 3-((1-(3-methyl-5-oxo-5,6-dihydropyrido[2,3-d]pyridazin-2-yl)piperidin-4-yl)oxy)benzonitrile], the EC50 amounted to 26 nM.

On to `COc1ccc(OC2CCN(c3nc4c(cc3C)c(=O)[nH]c(=O)n4C)CC2)cn1` [Example 5, 7-(4-((6-Methoxypyridin-3-yl)oxy)piperidin-1-yl)-1,6-dimethylpyrido[2,3-d]pyrimidine-2,4(1H,3H)-dione], for which the concentration giving a half-maximal response (EC50) is 366 nM.

For the compound `Cc1cc2c(=O)[nH]ncc2nc1N1CCC(OCC2(C)CC2)CC1` [Example 24, 3-methyl-2-(4-((1-methylcyclopropyl)methoxy)piperidin-1-yl)pyrido[2,3-d]pyridazin-5(6H)-one], the half-maximal effective concentration (EC50) came out at 18 nM. The same measure for `Cc1cc2c(=O)[nH]c(=O)[nH]c2nc1N1CCC(Oc2cccc(C#N)c2)CC1` [Example 7, 3-((1-(6-methyl-2,4-dioxo-1,2,3,4-tetrahydro-pyrido[2,3-d]pyrimidin-7-yl)piperidin-4-yl)oxy)benzonitrile]: 41 nM.
